The text below walks through data of US20210290553A1, “HC-1119 FORMULATION, PREPARATION METHOD AND USE THEREOF” (HINOVA PHARMACEUTICALS INC., priority 2018, published 2021).

Data set [1] can be described thus: Physical and chemical properties: solubility in water. Format: physicochemical. The text has this:
(§1) Therefore, HC-1119 is an insoluble drug with high permeability, and belongs to the second category of BSC classification, and thus it is extremely important to improve the bioavailability thereof.

Data set [2] can be described thus: Clinical pharmacokinetic test of HC-1119 soft capsule. The format is in vivo. Conditions: human, plasma, oral, HC-1119 80 mg, day 84. The procedure: (1) Dosage: 80 mg/day (2 soft capsules of 40 mg)
(2) Administration way: continuous administration, once a day, the first administration being orally taken with empty stomach, thereafter no restriction on diet.
In the pharmacokinetic study, 9 subjects participated in this study.
The drug was taken by the subjects with empty stomach on the first day of the test, and 0˜0.5 h before taking the drug as well as 0.5 h, 0.75 h, 1 h, 2 h (±5 min), 4 h, 8 h, 12 h (±15 min), 24 h (±30 min) before administration on the second day), blood samples were collected, and 3 mL venous blood was drawn at each time point, then placed in an anticoagulant tube (the type of anticoagulant was determined according to the established analytical method).
0˜0.5 h before administration on day 7, 21, 35, 42, 56, 70, and 84 of continuous dosing, as well as 0.5 h, 0.75 h, 1 h, 2 h (±5 min), 4 h, 8 h, 12 h (±15 min), 24 h (±30 min, before administration on day 85) after administration on day 84, 3 mL venous blood was collected at each time point and placed in an anticoagulant tube (the type of anticoagulant was determined according to the established analytical method).
The sample should be centrifuged as soon as possible (about 3000 rpm, 10 min) to separate the plasma. The separated plasma samples need to be stored in two parts in a plasma cryotube. […]

Data set [3] can be described thus: Permeability evaluated by Caco-2 cell model. The format is in vitro ADME. Conditions: human; 10 μM HC-1119, Caco-2 cell model; read-out: apparent permeability coefficient.
Excerpt: as §1
Background: Caco-2 monolayers are a common model of the intestinal barrier.

For data set [4] the following is noted: 160 mg QD 49 days, cited from earlier work.

Read-outs that look alike come from different tables or passages of the source.

In the case of `[2H]C([2H])([2H])NC(=O)c1ccc(N2C(=S)N(c3ccc(C#N)c(C(F)(F)F)c3)C(=O)C2(C)C)cc1F` [HC-1119, 4-{3-[4-cyano-3-(trifluoromethyl)phenyl]-5,5-dimethyl-4-oxo-2-thio-1-imidazolidinyl}-2-fluoro-N-trideuteromethylbenzamide], in data set [1], the solubility in water result is reported as “difficult to dissolve in water”. For the same molecule, the AUC – broadly, concentration integrated over time – at 84 day in data set [2] (read-out: steady-state AUC on day 84) worked out at 480 µg·h/mL. Further, in data set [2] (read-out: steady-state Ctrough on day 84), the concentration at 84 day came to 18900 ng/mL. Besides, the Papp at 10 μM in data set [3] lay in the range of 11.4 to 13.6 ×10⁻⁶ cm/s.

Turning to `CNC(=O)c1ccc(N2C(=S)N(c3ccc(C#N)c(C(F)(F)F)c3)C(=O)C2(C)C)cc1F` [Enzalutamide, enzalutamide], in data set [4] (Median), the “AUCtau” value was 295.6 µg·h/mL; the CL/F (in general, the apparent clearance, not corrected for the fraction that reaches the circulation) was 0.541 L/h; the Cmax (as a rule, the maximum level reached in the sampled fluid or tissue) is 15550 ng/mL; the “Cmin” value was 11450 ng/mL. Also, the “tmax” value in data set [4] (Median) was 61.2 min. For the same molecule, in data set [4] (Min-Max), the “AUCtau” value is 240 to 593 µg·h/mL, the “Cmax” value is 11800 to 28000 ng/mL, the “Cmin” value was 6920 to 22400 ng/mL and the “tmax” value is 31.2 to 181 min. In data set [4] (mean values), the “AUCtau” value is 321.5 µg·h/mL, the “CL/F” value is 0.520 L/h, the “Cmax” value was 16590 ng/mL and the “Cmin” value is 12000 ng/mL. Further, the “Cmin” value in data set [4] (mean values, listed as enzalutamide) is 12000 ng/mL.
